Tests used:
[1] = target: bromodomain of SMARCA2 protein (Homo sapiens (Human), UniProt P40337+P51531); test: SMARCA2 bromodomain ternary binding TR-FRET assay (with VCB); settings: with saturating VCB (5 μM); read-out: IC50 (SM 2_T) ternary binding potency in SMARCA2 FRET assay
Excerpt: Recombinant bromodomain of SMARCA2 protein was purchased from Active Motif (Catalog #: 31449). VHL/ElonginB/ElonginC (VCB)N-terminal his6-tagged VHL (“his6” disclosed as SEQ ID NO: 4) (uniprot accession number P40337; M54-D213; […] […] […] (SEQ ID NO: 1)), Elongin B (Q15370; M1-K104; […] […] (SEQ ID NO: 2)), Elongin C (Q15369; M17-C112; […] […] (SEQ ID NO: 3)) complex were co-expressed and the complex was purified by Ni-affinity, TEV protease was then used to remove his6-tagged (SEQ ID NO: 4), and the complex was further purified by size-exclusion chromatography before use.
The inhibitory activity of compounds was evaluated in vitro using TR-FRET assay with white 384-well low volume microplate (PerkinElmer ProxiPlate Plus), in which the compound competes the same binding site with the ligand, and thus lead to dose-dependent TR-FRET signal reduction. The cooperativity of the compounds for ternary complex formation with E3 ligase was evaluated in the absence or presence of saturating concentrations of VCB. Testing compounds were dissolved in DMSO at […] and tested in 9-dose IC50. The assay mixture was prepared by mixing SMARCA2 (10 nM final), biotinylated probe (25 nM final), and assay buffer or VCB (5 μM) in 1×AlphaLISA Epigenetics Buffer (PerkinElmer AL008F) with 1 mM TCEP. The compounds in DMSO were added to each well in 3-fold serial dilution by dispenser (TECAN D300E) and incubate for 20 minutes at room temperature before addition of detection reagents, Lance Eu W1024 anti-6×His (0.6 nM final, PerkinElmer AD0110) and Streptavidin Surelight APC (6 nM final, PerkinElmer CR130-100). The plate was then sealed and further incubated at 4° C. overnight in dark, and then was read by Envision multimode plate reader (PerkinElmer, 2102-0010). The ratio of florescence signal at 665/620 was used in data analysis. Percentage inhibition was calculated by % inhibition=100×(FDMSO-F)/(FDMSO-FPC), in which FDMSO is DMSO control, and FPC is positive control. IC50 values were determined from dose response curve by fitting the percent inhibition against compound concentration using GraphPad Prism software.

SMARCA2 = SMARCA2 (Homo sapiens (Human), UniProt P51531); test: In Cell Western SMARCA2 degradation in NCIH520 cells; type: cell-based; settings: for DC50: read-out: DC50 (SM2_H520) SMARCA2 degradation potency
Chain of SMARCA2 (P51531 whole entry): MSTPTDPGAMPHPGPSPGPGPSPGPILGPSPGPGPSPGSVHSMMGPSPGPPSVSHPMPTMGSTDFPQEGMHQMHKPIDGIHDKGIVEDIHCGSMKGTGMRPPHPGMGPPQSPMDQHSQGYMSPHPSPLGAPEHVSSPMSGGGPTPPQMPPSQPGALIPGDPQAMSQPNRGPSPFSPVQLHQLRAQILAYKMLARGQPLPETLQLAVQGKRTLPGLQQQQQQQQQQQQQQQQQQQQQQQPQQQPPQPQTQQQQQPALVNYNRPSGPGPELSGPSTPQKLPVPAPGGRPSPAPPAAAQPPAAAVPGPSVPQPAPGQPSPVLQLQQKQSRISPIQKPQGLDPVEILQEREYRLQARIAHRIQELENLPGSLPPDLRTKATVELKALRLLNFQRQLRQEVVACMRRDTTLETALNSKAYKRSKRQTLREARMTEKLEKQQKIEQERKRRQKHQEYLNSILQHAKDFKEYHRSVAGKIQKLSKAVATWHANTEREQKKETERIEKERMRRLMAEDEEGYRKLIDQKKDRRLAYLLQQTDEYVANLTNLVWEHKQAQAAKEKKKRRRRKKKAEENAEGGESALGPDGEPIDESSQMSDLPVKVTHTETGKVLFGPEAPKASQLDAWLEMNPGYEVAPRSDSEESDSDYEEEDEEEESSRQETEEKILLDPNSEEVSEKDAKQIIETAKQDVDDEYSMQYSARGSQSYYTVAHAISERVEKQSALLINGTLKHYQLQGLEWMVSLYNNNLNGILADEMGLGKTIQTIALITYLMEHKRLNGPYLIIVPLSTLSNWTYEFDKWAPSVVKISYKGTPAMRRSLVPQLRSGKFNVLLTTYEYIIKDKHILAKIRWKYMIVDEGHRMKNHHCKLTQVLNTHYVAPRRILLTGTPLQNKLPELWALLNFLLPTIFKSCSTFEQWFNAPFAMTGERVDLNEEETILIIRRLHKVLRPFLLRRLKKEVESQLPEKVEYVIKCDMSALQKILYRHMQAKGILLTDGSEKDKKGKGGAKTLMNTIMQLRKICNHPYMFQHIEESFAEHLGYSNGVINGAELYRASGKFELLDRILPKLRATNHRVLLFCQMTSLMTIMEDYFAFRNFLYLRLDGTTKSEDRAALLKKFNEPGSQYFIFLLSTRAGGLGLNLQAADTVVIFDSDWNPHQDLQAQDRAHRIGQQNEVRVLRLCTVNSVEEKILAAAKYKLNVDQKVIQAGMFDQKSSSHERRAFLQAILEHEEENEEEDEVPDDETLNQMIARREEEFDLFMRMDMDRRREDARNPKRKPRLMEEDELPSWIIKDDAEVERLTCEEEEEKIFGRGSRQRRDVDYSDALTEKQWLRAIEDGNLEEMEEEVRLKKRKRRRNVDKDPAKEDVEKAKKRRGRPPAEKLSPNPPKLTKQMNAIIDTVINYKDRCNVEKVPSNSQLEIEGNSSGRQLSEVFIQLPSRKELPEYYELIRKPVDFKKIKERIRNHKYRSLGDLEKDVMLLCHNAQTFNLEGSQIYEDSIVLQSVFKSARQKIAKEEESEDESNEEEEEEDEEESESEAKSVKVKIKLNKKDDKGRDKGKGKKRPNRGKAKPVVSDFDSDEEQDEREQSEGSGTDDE
Procedure: (§1) Compound titration and cell culture: Compounds were dissolved in DMSO to make 10 mM stock and 3-fold series dilutions were further conducted keeping the highest concentration 10 μM. NCIH1693 and NCIH520 cells were maintained in PRMI 1640 medium (Corning Cellgro, Catalog #:10-040-CV) supplemented with 10% v/v FBS (GE Healthcare, Catalog #: SH30910.03) by splitting 1:3 twice a week.
(§2) To determine SMACRA2 and SMARCA4 protein degradation DC50 values in NCIH1693 and NCIH520 cells by In Cell Western (ICW) analysis. Cells were trypsinized and 30 thousand cells/well were seeded into 384-well plates and were allowed to grow for 5 hours at 37° C. Eight-point, 3-fold serial dilutions of compounds from 10 mM stocks were added to the cells (using digital Dispenser D300-Tecan, keeping highest concentration 10 μM and normalizing with DMSO at the highest dispensed volume). Plates were incubated at 37° C. for overnight (maximum 18 hours). Cells incubated with DMSO was used as a vehicle control.
(§3) To perform In Cell Western, medium was removed from all the wells leaving cells attached to the surface. After removing the medium, cells were fixed within the plates with 40 μL of 4% formaldehyde by incubating at room temperature for 30 minutes, and then permeabilized with wash buffer (1×PBS with 0.1% Triton X-100) by washing the plate 5 times with 50 μL/well. Before labeling with primary antibodies, cells were blocked with 30 μL/well of blocking buffer (Licor Odyssey blocking buffer PBS #927-40000) for 30 minutes at room temperature. To measure SMARCA2 or SMARCA4 proteins, cells were labeled with 20 μL/well of anti SMARCA2 or SMACRA4 antibodies (Cell Signaling BRM #11966S 1:1000, Cell Signaling BRG #49360S 1:1000) diluted in Li-Cor Odyssey blocking buffer-PBS #927-40000, followed by overnight incubation at 4° C.
(§4) The next day, plates were washed 5×5 minutes with 50 μL/well of washing buffer to remove all the excess primary antibody and then 20 μL from a mixture of secondary antibody and fluorescent DNA specific dye (Goat anti rabbit 1:500 IRDye-800CW #92632211, and DRAQ5™ 1:2000-#ab108410) was added to each well. Plates were incubated for 1 hour at room temperature with gentle rocking. Cells were washed 5 times with 50 μL/well wash buffer, followed by one last wash with DI water, followed by 10 mins drying at 37° C. oven before scanning. Plates were scanned using Li-Cor Odyssey CLx imaging system to acquire integrated intensities at 700 nm and 800 nm. SMARCA signals were normalized to total cell count and then these normalized values were used to calculate the percent degradation relative to DMSO control and maximum inhibition. DC50s were calculated by using the GraphPad Prism4 program based on sigmoidal dose response equation ([Inhibitor] vs. normalized response−Variable slope).

SMARCA4 = SMARCA4 (Homo sapiens (Human), UniProt P51532); test: In Cell Western SMARCA4 degradation in NCIH520 cells; type: cell-based; settings: for DC50: read-out: DC50 (SM4_H520) SMARCA4 degradation potency
Chain of SMARCA4 (P51532 whole entry): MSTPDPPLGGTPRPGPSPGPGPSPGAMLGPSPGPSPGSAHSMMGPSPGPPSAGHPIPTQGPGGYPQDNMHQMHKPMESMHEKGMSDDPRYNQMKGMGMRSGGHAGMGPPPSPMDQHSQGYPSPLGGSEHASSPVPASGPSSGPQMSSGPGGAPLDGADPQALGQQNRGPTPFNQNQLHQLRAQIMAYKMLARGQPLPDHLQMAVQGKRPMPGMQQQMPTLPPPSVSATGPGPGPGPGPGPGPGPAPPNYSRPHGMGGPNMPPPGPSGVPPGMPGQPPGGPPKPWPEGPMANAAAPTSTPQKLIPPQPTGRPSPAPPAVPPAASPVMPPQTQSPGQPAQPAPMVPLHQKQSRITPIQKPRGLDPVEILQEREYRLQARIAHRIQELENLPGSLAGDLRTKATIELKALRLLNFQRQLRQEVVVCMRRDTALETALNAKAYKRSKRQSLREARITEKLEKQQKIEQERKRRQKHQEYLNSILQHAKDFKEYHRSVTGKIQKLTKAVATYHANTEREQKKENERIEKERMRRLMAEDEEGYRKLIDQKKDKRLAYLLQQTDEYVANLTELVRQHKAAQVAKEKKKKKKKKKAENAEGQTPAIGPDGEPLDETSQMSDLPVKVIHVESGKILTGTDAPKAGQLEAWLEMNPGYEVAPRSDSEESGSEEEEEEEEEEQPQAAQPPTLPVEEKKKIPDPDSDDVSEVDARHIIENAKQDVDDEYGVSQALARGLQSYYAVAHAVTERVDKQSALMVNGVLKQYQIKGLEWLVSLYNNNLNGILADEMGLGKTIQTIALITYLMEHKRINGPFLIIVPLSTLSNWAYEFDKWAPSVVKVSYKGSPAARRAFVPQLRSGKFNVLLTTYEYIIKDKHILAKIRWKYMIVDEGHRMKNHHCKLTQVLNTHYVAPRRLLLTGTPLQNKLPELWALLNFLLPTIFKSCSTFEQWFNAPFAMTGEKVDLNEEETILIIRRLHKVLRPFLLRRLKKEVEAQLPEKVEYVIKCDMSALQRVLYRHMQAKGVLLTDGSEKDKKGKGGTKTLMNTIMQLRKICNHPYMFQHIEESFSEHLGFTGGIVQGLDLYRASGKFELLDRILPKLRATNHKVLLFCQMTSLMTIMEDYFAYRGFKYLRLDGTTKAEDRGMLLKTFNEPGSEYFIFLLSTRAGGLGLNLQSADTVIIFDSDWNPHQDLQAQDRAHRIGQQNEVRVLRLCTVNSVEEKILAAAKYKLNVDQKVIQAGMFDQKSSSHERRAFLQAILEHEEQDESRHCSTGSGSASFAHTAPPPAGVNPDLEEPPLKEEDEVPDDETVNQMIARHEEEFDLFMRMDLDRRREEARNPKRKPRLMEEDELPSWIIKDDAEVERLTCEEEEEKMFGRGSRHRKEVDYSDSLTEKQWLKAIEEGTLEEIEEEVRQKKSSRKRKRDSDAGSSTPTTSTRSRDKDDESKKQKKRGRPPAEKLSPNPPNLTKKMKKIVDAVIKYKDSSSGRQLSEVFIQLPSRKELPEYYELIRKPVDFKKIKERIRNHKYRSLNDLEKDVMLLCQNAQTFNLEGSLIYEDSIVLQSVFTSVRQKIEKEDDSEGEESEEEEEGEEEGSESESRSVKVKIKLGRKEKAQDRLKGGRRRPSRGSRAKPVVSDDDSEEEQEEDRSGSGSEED
Procedure: as §1, §2, §3, §4

Chain of bromodomain of SMARCA2 protein (P51531 whole entry, looked up): as the sequence (P51531 whole entry) above
Chain of bromodomain of SMARCA2 protein (P40337 whole entry, looked up): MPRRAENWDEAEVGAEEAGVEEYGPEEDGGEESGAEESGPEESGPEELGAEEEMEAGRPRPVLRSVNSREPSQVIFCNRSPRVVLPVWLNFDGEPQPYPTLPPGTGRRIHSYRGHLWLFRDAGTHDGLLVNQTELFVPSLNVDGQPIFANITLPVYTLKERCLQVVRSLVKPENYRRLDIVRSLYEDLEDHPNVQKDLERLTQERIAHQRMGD
Chain of bromodomain of SMARCA2 protein (Q15370 whole entry partner, looked up): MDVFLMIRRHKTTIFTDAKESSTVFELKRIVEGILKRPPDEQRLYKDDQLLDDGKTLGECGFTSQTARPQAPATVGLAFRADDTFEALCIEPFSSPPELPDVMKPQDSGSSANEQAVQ
Chain of bromodomain of SMARCA2 protein (Q15369 whole entry partner, looked up): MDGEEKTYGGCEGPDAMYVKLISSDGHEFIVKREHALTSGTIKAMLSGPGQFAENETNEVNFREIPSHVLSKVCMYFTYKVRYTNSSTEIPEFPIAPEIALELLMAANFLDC

IC50 [1] [nM]	DC50 (SMARCA2; H520 cells, overnight) [nM]	DC50 (SMARCA4; H520 cells, overnight) [nM]	Dmax (SMARCA2; NCI-H520, overnight, read-out: Dmax % (SM2_H520) maximum SMARCA2 degradation within the concentrations tested) [%]	Dmax (SMARCA4; NCI-H520, overnight, read-out: Dmax % (SM4_H520) maximum SMARCA4 degradation within the concentrations tested) [%]	Dmax % (SM2_H520) maximum SMARCA2 degradation within the concentrations tested (SMARCA2; H520 cells, overnight)	Dmax % (SM4_H520) maximum SMARCA4 degradation within the concentrations tested (SMARCA4; H520 cells, overnight)	SMILES
< 100	100 to 1000	100 to 1000	–	–	–	–	Cc1ncsc1-c1ccc([C@H](C)NC(=O)[C@@H]2C[C@@H](O)CN2C(=O)[C@@H](NC(=O)CN2CCN3c4cc(-c5ccccc5O)nnc4NCC3C2)C(C)(C)C)cc1 (single isomer, unassigned) [Example 1b]
100 to 1000	100 to 1000	1000 to 10000	> 75	50 to 75	–	–	Cc1scnc1-c1ccc(CNC(=O)[C@@H]2C[C@@H](O)CN2C(=O)[C@@H](NC(=O)CN2CCN3c4cc(-c5ccccc5O)nnc4NCC3C2)C(C)(C)C)cc1 (single isomer, unassigned) [Example 2a]
< 100	1000 to 10000	≥ 10000	–	–	A (A = Dmax > 75%)	C (C = Dmax <= 50%)	Cc1scnc1-c1ccc(CNC(=O)[C@@H]2C[C@@H](O)CN2C(=O)[C@@H](NC(=O)CN2CCN3c4cc(-c5ccccc5O)nnc4NCC3C2)C(C)(C)C)cc1 (single isomer, unassigned) [Example 2b]

Source: patent US20240018158A1, “BRM TARGETING COMPOUNDS AND ASSOCIATED METHODS OF USE” (Prelude Therapeutics Incorporated, priority 2020, published 2024)
